In ChEMBL document CHEMBL4507301 (2021):

Tests used:
[1] = target: T1, Alpha-2C adrenergic receptor (Homo sapiens) (UniProt P18825); experiment: alpha2C Eurofins-Panlabs ligand profiling; conditions: Compound concentration 10.0 uM
T1 sequence (whole entry): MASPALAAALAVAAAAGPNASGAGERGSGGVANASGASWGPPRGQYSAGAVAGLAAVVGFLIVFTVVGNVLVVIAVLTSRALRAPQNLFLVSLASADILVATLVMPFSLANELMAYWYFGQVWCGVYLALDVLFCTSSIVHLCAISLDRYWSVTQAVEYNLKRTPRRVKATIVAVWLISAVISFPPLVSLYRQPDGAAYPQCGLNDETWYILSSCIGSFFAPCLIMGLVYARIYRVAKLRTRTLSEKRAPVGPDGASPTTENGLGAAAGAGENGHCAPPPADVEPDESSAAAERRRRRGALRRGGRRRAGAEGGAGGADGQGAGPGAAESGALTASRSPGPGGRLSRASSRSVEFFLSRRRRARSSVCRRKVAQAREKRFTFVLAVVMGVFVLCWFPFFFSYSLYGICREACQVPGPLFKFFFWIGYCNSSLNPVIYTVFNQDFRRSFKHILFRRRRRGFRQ

[2] = target: Muscarinic acetylcholine receptor M2 (Homo sapiens) (UniProt P08172); conditions: Compound concentration 10.0 uM
[3] = target: 5-hydroxytryptamine receptor 5A (Homo sapiens) (UniProt P47898); conditions: Compound concentration 10.0 uM
[4] = target: Mitogen-activated protein kinase kinase kinase 4 (Homo sapiens) (UniProt Q9Y6R4); conditions: Compound concentration 1000.0 nM
[5] = target: Protein kinase C theta type (Homo sapiens) (UniProt Q04759); conditions: Compound concentration 1000.0 nM
[6] = target: Interferon-induced, double-stranded RNA-activated protein kinase (Homo sapiens) (UniProt P19525); conditions: Compound concentration 1000.0 nM
[7] = target: Beta-3 adrenergic receptor (Homo sapiens) (UniProt P13945); experiment: beta3 Eurofins-Panlabs ligand profiling; conditions: Compound concentration 10.0 uM
[8] = test system: Tyrosine-protein kinase ABL1 (Homo sapiens), P00519 [T315I]; conditions: Compound concentration 1000.0 nM
[9] = target: LIM domain kinase 1 (Homo sapiens) (UniProt P53667); conditions: Compound concentration 1000.0 nM
[10] = target: Mitogen-activated protein kinase kinase kinase 5 (Homo sapiens) (UniProt Q99683); conditions: Compound concentration 1000.0 nM
[11] = target: Cyclin-dependent kinase 17 (Homo sapiens) (UniProt Q00537); conditions: Compound concentration 1000.0 nM
[12] = target: Casein kinase I isoform alpha-like (Homo sapiens) (UniProt Q8N752); conditions: Compound concentration 1000.0 nM
[13] = target: Interleukin-1 receptor-associated kinase 3 (Homo sapiens) (UniProt Q9Y616); conditions: Compound concentration 1000.0 nM
[14] = target: 5-hydroxytryptamine receptor 3A (Homo sapiens) (UniProt P46098); conditions: Compound concentration 10.0 uM
[15] = target: T2, Alpha-2A adrenergic receptor (Homo sapiens) (UniProt P08913); conditions: Compound concentration 10.0 uM
T2 sequence (whole entry): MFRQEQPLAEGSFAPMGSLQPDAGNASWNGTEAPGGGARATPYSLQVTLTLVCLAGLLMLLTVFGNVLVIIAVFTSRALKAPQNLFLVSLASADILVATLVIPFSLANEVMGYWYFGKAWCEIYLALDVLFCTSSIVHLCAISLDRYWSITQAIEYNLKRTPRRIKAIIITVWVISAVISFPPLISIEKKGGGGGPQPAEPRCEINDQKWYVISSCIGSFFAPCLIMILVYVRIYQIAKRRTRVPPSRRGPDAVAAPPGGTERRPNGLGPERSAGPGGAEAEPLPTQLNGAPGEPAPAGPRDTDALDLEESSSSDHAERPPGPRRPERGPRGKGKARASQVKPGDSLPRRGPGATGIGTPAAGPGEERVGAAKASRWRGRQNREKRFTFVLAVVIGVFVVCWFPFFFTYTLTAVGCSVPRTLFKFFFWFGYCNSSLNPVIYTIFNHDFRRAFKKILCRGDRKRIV

[16] = target: SRSF protein kinase 2 (Homo sapiens) (UniProt P78362); conditions: Compound concentration 1000.0 nM
[17] = target: Beta-2 adrenergic receptor (Homo sapiens) (UniProt P07550); experiment: beta2 Eurofins-Panlabs ligand profiling; conditions: Compound concentration 10.0 uM
[18] = target: Beta-1 adrenergic receptor (Homo sapiens) (UniProt P08588); experiment: beta1 Eurofins-Panlabs ligand profiling; conditions: Compound concentration 10.0 uM
[19] = target: Serine/threonine-protein kinase tousled-like 1 (Homo sapiens) (UniProt Q9UKI8); conditions: Compound concentration 1000.0 nM
[20] = target: Serine/threonine-protein kinase tousled-like 2 (Homo sapiens) (UniProt Q86UE8); conditions: Compound concentration 1000.0 nM
[21] = target: Mast/stem cell growth factor receptor Kit (Homo sapiens) (UniProt P10721); conditions: Compound concentration 1000.0 nM
[22] = target: Alpha-1D adrenergic receptor (Rattus norvegicus) (UniProt P23944); experiment: Inhibition of phenylephrine-induced contractions in bladder strips from rats with bladder outlet obstruction; format: tissue-based; conditions: Urinary bladder
[23] = target: Serotonin 1 (5-HT1) receptor (Homo sapiens) (UniProt P30939+P28222+P08908+P28221+P28566); experiment: 5-HT1 Eurofins-Panlabs ligand profiling; format: protein assay; conditions: Compound concentration 10.0 uM
[24] = test system: Tyrosine-protein kinase ABL1 (Homo sapiens), P00519 [F317L]; conditions: Compound concentration 1000.0 nM
[25] = target: Receptor-interacting serine/threonine-protein kinase 1 (Homo sapiens) (UniProt Q13546); conditions: Compound concentration 1000.0 nM
[26] = test system: Epidermal growth factor receptor (Homo sapiens), P00533 [T790M]; conditions: Compound concentration 1000.0 nM
[27] = target: Rhodopsin kinase GRK7 (Homo sapiens) (UniProt Q8WTQ7); conditions: Compound concentration 1000.0 nM
[28] = target: cGMP-dependent protein kinase 2 (Homo sapiens) (UniProt Q13237); conditions: Compound concentration 1000.0 nM
[29] = target: T3, Alpha-1A adrenergic receptor (Homo sapiens, UniProt P35348)
[30] = target: Muscarinic acetylcholine receptor M4 (Homo sapiens) (UniProt P08173); conditions: Compound concentration 10.0 uM
[31] = target: T3, Alpha-1A adrenergic receptor; experiment: GPCRScan assay: inhibition of Alpha1A; design: radioligand conc. used [nm] 0.2 - 1.0, parental cells stable HEK
[32] = target: Alpha-1D adrenergic receptor (Homo sapiens, UniProt P25100); experiment: GPCRScan assay: inhibition of Alpha1D; design: radioligand conc. used [nm] 0.3 – 1.0, parental cells stable
[33] = target: Alpha-2B adrenergic receptor (Homo sapiens) (UniProt P18089); conditions: Compound concentration 10.0 uM

Sequence of cGMP-dependent protein kinase 2 (Homo sapiens) (Q13237 whole entry): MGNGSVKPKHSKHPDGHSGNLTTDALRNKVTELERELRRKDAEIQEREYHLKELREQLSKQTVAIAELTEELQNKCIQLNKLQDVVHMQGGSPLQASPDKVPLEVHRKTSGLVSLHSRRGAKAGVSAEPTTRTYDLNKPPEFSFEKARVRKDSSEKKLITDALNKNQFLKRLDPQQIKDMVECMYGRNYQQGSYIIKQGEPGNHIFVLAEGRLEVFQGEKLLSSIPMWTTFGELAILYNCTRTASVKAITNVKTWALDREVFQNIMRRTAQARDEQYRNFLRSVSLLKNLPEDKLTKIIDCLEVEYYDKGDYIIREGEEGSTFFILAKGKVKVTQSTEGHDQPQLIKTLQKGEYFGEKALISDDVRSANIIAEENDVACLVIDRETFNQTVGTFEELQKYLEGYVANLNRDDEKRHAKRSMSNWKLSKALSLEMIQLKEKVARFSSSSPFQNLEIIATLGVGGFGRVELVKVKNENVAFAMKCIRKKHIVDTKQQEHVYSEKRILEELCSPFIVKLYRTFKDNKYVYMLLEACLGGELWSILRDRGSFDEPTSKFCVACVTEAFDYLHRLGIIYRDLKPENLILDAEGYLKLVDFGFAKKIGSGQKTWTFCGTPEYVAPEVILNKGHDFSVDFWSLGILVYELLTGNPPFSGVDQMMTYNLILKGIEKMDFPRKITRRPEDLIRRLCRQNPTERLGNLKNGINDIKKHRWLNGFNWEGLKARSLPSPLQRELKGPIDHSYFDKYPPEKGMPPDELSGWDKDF
Sequence of Protein kinase C theta type (Homo sapiens) (Q04759 whole entry, looked up): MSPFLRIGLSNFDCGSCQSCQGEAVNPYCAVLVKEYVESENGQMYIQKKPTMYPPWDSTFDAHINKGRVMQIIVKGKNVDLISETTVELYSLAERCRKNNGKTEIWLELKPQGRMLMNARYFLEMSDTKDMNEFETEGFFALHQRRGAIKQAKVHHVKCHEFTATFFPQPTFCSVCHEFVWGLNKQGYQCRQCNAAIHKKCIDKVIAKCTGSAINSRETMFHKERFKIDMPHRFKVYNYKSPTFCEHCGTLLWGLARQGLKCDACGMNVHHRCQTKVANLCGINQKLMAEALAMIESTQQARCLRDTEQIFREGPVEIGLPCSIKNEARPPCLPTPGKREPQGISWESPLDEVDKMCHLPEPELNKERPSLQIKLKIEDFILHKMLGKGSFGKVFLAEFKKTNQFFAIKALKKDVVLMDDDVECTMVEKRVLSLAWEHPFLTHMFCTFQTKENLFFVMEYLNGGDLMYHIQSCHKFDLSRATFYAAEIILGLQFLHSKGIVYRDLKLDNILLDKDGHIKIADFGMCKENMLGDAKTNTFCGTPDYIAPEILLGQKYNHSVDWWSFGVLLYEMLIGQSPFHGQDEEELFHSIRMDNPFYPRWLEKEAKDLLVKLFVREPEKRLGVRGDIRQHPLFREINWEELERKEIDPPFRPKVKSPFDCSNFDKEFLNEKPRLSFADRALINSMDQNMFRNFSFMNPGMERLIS
Sequence of SRSF protein kinase 2 (Homo sapiens) (P78362 whole entry, looked up): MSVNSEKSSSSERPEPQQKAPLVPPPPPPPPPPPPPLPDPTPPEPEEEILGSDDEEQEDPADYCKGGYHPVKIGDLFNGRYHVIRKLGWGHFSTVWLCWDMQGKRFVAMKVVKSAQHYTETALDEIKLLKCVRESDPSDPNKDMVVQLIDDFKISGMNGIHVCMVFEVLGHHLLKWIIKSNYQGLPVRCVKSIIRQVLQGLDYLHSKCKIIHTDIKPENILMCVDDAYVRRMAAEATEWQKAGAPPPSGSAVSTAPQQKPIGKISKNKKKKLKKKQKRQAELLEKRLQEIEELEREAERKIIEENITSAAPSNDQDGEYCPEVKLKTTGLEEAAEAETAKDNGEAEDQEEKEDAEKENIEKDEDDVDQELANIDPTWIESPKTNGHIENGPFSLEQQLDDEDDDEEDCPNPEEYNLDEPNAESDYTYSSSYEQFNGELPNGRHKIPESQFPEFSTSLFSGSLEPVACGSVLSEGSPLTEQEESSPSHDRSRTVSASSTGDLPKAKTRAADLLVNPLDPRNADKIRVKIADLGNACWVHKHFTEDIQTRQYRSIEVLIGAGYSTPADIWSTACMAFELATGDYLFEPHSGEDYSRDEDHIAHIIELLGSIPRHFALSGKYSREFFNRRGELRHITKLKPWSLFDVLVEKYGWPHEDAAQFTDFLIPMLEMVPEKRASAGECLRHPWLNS
Sequence of Mast/stem cell growth factor receptor Kit (Homo sapiens) (P10721 whole entry): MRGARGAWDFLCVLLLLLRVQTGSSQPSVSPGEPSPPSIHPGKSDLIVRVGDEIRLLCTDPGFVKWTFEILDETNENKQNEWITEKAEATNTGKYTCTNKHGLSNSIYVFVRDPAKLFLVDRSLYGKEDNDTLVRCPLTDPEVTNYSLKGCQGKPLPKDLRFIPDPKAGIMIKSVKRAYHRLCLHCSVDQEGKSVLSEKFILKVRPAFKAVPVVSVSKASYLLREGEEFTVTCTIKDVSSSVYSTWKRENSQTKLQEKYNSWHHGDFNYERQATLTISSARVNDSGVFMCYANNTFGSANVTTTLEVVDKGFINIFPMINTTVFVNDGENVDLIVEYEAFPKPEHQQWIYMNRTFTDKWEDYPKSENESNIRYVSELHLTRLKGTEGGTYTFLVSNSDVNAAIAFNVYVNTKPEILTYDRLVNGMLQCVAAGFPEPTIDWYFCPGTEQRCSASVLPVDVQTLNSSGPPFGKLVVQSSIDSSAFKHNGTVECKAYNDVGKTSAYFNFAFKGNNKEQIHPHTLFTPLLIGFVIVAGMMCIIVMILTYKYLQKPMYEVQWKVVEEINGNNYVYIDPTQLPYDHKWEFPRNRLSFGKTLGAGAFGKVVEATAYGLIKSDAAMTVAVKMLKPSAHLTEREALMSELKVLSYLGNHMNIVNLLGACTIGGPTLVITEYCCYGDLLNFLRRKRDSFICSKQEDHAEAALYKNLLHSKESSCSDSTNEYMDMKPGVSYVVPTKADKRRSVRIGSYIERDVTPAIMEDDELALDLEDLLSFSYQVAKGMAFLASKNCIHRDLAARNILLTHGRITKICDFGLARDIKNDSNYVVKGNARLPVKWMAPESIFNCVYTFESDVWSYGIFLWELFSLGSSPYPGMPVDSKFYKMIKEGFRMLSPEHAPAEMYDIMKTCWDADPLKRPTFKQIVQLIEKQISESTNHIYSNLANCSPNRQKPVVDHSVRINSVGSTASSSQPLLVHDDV
Sequence of Rhodopsin kinase GRK7 (Homo sapiens) (Q8WTQ7 whole entry): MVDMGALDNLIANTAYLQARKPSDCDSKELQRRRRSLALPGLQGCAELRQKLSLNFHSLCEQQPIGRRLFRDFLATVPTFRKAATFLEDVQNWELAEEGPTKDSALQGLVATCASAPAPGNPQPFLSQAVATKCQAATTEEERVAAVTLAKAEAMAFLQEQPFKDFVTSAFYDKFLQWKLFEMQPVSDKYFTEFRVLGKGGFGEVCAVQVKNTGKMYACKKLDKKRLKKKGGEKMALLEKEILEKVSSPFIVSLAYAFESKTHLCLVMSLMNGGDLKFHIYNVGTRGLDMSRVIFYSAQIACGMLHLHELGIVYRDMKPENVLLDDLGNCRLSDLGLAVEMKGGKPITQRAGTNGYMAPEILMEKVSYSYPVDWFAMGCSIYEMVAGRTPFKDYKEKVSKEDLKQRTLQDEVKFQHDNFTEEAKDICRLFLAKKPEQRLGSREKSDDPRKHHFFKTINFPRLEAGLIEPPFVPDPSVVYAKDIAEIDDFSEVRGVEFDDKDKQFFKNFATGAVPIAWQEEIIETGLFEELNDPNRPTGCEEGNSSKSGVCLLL
Sequence of Cyclin-dependent kinase 17 (Homo sapiens) (Q00537 whole entry, looked up, canonical isoform): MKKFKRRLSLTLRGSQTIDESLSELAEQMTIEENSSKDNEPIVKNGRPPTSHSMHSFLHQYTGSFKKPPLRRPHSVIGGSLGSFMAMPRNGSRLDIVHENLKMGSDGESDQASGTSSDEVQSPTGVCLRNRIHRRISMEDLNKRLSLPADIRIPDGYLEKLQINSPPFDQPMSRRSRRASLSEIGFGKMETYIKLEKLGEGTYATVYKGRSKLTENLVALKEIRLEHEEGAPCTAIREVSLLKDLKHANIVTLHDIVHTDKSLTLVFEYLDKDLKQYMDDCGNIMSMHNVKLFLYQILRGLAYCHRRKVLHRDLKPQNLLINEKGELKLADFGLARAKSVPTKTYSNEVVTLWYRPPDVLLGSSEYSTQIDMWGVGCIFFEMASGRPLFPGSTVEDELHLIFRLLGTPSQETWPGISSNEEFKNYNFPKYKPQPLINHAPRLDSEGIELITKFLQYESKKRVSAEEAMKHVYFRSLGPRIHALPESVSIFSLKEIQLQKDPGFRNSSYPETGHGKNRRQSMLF
Sequence of Serine/threonine-protein kinase tousled-like 1 (Homo sapiens) (Q9UKI8 whole entry): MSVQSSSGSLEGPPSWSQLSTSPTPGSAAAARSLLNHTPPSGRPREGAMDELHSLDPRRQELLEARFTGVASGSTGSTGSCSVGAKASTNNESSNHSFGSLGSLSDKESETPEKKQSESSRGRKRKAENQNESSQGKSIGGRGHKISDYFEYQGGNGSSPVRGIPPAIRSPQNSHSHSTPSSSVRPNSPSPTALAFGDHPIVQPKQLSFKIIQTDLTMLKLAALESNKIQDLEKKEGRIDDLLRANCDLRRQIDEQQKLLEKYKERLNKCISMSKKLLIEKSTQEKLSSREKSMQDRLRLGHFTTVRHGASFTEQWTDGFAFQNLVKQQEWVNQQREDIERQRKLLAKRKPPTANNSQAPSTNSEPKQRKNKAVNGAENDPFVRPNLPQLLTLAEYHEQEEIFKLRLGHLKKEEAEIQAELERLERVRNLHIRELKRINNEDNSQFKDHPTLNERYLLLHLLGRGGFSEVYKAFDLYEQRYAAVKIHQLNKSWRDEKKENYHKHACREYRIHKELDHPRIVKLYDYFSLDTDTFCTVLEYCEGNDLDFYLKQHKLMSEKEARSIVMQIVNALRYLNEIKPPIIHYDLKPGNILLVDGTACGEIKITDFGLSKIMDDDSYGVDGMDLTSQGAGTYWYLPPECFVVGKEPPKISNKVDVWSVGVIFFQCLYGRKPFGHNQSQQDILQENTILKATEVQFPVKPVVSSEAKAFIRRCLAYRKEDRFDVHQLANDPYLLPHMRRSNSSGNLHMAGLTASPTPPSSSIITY

Q: What does the source list for `C[C@H](c1cccc(C#N)c1)n1cc(Cl)cc(C(N)=O)c1=N` [(R)-9s]?
A: inhibition [1]: 10%; inhibition [2]: -3.2%; inhibition [3]: 0.88%; residual activity [4]: 47%; residual activity [5]: 97%; residual activity [6]: 100%; inhibition [7]: -6%; residual activity [8]: 96%; residual activity [9]: 88%; residual activity [10]: 85%; residual activity [11]: 91%; residual activity [12]: 92%; residual activity [13]: 99%; inhibition [14]: -5.97%; inhibition [15]: 4.64%; residual activity [16]: 100%; inhibition [17]: 4%; inhibition [18]: -5%; residual activity [19]: 94%; residual activity [20]: 100%; residual activity [21]: 87%; IC30 [22]: 0.015 µM; inhibition [23]: 0%; residual activity [24]: 83%; residual activity [25]: 100%; residual activity [26]: 80%; residual activity [27]: 85%; residual activity [28]: 97%

Q: `C[C@@H](c1cccc(C#N)c1)n1cc(Cl)cc(C(N)=O)c1=N` [(S)-9s] was tested. Which inhibition [2] did it give?
A: The inhibition was 0.11%.

Q: And the residual activity [4]?
A: The residual activity was 71%.

Q: What about the residual activity [5] of the same compound?
A: The residual activity was 86%.

Q: And the Ki [29]?
A: Its Ki is > 2.7 µM (not active).

Q: What about the residual activity [6] of the same compound?
A: The residual activity was 100%.

Q: What about the inhibition [30] of the same compound?
A: Its inhibition is -6.48%.

Q: And the residual activity [8]?
A: Its residual activity is 0%.

Q: And the residual activity [9]?
A: The residual activity was 100%.

Q: What about the residual activity [10] of the same compound?
A: The residual activity was 100%.

Q: What about the Ki [31] of the same compound?
A: Its Ki is 1.07 µM.

Q: And the residual activity [11]?
A: Its residual activity is 84%.

Q: And the residual activity [12]?
A: Its residual activity is 82%.

Q: What about the residual activity [13] of the same compound?
A: The residual activity was 99%.

Q: What about the inhibition [15] of the same compound?
A: Its inhibition is -1.01%.

Q: And the residual activity [16]?
A: The residual activity was 100%.

Q: And the Ki [32]?
A: Its Ki is 1.48 µM.

Q: And the inhibition [33]?
A: Its inhibition is 0.7%.

Q: What about the residual activity [19] of the same compound?
A: Its residual activity is 100%.

Q: And the residual activity [20]?
A: Its residual activity is 100%.

Q: What about the residual activity [21] of the same compound?
A: Its residual activity is 93%.

Q: And the residual activity [24]?
A: Its residual activity is 0%.

Q: What about the residual activity [25] of the same compound?
A: The residual activity was 100%.

Q: And the residual activity [26]?
A: Its residual activity is 93%.

Q: What about the residual activity [27] of the same compound?
A: The residual activity was 82%.

Q: And the residual activity [28]?
A: Its residual activity is 100%.
